Experimental data reported in ChEMBL document CHEMBL4043145, “Pyridine-pyrimidine amides that prevent HGF-induced epithelial scattering by two distinct mechanisms” (Bioorg Med Chem Lett, 2017).

Columns and labels:
Format in all cases: functional
[1] = test system: A2780; assay: Induction of apoptosis in human A2780 cells assessed as nuclear debris at 300 nM by 7-AAD/Annexin staining-based assay (reference value: 0.3 to 1.1%)
[2] = test system: A2780; assay: Induction of apoptosis in human A2780 cells assessed as early apoptotic cells at 100 nM by 7-AAD/Annexin staining-based assay (reference value: 1.7 to 2.1%)
[3] = test system: A2780; assay: Induction of apoptosis in human A2780 cells assessed as late apoptotic cells at 100 nM by 7-AAD/Annexin staining-based assay (reference value: 1.2 to 2.2%)
[4] = test system: A2780; assay: Induction of apoptosis in human A2780 cells assessed as nuclear debris at 100 nM by 7-AAD/Annexin staining-based assay (reference value: 0.3 to 1.1%)
[5] = test system: MCF7; assay: Induction of apoptosis in human MCF7 cells assessed as nuclear debris at 1000 nM by 7-AAD/Annexin staining-based assay (reference value: 0.2 to 3%)
[6] = test system: MCF7; assay: Induction of apoptosis in human MCF7 cells assessed as viable cells at 300 nM by 7-AAD/Annexin staining-based assay (reference value: 92.6 to 96.8%); conditions: read-out: Activity
[7] = test system: MCF7; assay: Induction of apoptosis in human MCF7 cells assessed as nuclear debris at 300 nM by 7-AAD/Annexin staining-based assay (reference value: 0.2 to 3%)
[8] = test system: MCF7; assay: Induction of apoptosis in human MCF7 cells assessed as early apoptotic cells at 100 nM by 7-AAD/Annexin staining-based assay (reference value: 2 to 2.7%)
[9] = test system: MCF7; assay: Induction of apoptosis in human MCF7 cells assessed as nuclear debris at 100 nM by 7-AAD/Annexin staining-based assay (reference value: 0.2 to 3%)
[10] = test system: PC-3; assay: Induction of apoptosis in human p53-null PC3 cells assessed as viable cells at 1000 nM by 7-AAD/Annexin staining-based assay (reference value: 96.5 to 98.6%); conditions: read-out: Activity
[11] = test system: PC-3; assay: Induction of apoptosis in human p53-null PC3 cells assessed as nuclear debris at 1000 nM by 7-AAD/Annexin staining-based assay (reference value: 0.1 to 0.5%)
[12] = test system: PC-3; assay: Induction of apoptosis in human p53-null PC3 cells assessed as early apoptotic cells at 300 nM by 7-AAD/Annexin staining-based assay (reference value: 0.6 to 1.4%)
[13] = test system: PC-3; assay: Induction of apoptosis in human p53-null PC3 cells assessed as late apoptotic cells at 300 nM by 7-AAD/Annexin staining-based assay (reference value: 0.4 to 1.6%)
[14] = test system: PC-3; assay: Induction of apoptosis in human p53-null PC3 cells assessed as viable cells at 100 nM by 7-AAD/Annexin staining-based assay (reference value: 96.5 to 98.6%); conditions: read-out: Activity
[15] = test system: PC-3; assay: Induction of apoptosis in human p53-null PC3 cells assessed as early apoptotic cells at 100 nM by 7-AAD/Annexin staining-based assay (reference value: 0.6 to 1.4%)
[16] = test system: PC-3; assay: Induction of apoptosis in human p53-null PC3 cells assessed as late apoptotic cells at 100 nM by 7-AAD/Annexin staining-based assay (reference value: 0.4 to 1.6%)
[17] = test system: PC-3; assay: Induction of apoptosis in human p53-null PC3 cells assessed as nuclear debris at 100 nM by 7-AAD/Annexin staining-based assay (reference value: 0.1 to 0.5%)
[18] = test system: MFE-280; assay: Induction of apoptosis in human MFE280 cells assessed as nuclear debris at 1000 nM by 7-AAD/Annexin staining-based assay (reference value: 0.5 to 2.3%)
[19] = test system: MFE-280; assay: Induction of apoptosis in human MFE280 cells assessed as nuclear debris at 300 nM by 7-AAD/Annexin staining-based assay (reference value: 0.5 to 2.3%)
[20] = test system: MFE-280; assay: Induction of apoptosis in human MFE280 cells assessed as viable cells at 100 nM by 7-AAD/Annexin staining-based assay (reference value: 84.9 to 87.7%); conditions: read-out: Activity
[21] = test system: MFE-280; assay: Induction of apoptosis in human MFE280 cells assessed as nuclear debris at 100 nM by 7-AAD/Annexin staining-based assay (reference value: 0.5 to 2.3%)
[22] = test system: MFE-296; assay: Induction of apoptosis in human MFE296 cells assessed as early apoptotic cells at 1000 nM by 7-AAD/Annexin staining-based assay (reference value: 1.5 to 2.1%)
[23] = test system: MFE-296; assay: Induction of apoptosis in human MFE296 cells assessed as late apoptotic cells at 1000 nM by 7-AAD/Annexin staining-based assay (reference value: 3.6 to 6.6%)
[24] = test system: MFE-296; assay: Induction of apoptosis in human MFE296 cells assessed as nuclear debris at 1000 nM by 7-AAD/Annexin staining-based assay (reference value: 0.4 to 0.8%)
[25] = test system: MFE-296; assay: Induction of apoptosis in human MFE296 cells assessed as late apoptotic cells at 300 nM by 7-AAD/Annexin staining-based assay (reference value: 3.6 to 6.6%)
[26] = test system: MFE-296; assay: Induction of apoptosis in human MFE296 cells assessed as late apoptotic cells at 100 nM by 7-AAD/Annexin staining-based assay (reference value: 3.6 to 6.6%)
[27] = test system: T47D; assay: Induction of apoptosis in human T47D cells assessed as viable cells at 1000 nM by 7-AAD/Annexin staining-based assay (reference value: 74.5 to 94.5%); conditions: read-out: Activity
[28] = test system: T47D; assay: Induction of apoptosis in human T47D cells assessed as early apoptotic cells at 1000 nM by 7-AAD/Annexin staining-based assay (reference value: 1.6 to 4.3%)
[29] = test system: T47D; assay: Induction of apoptosis in human T47D cells assessed as late apoptotic cells at 1000 nM by 7-AAD/Annexin staining-based assay (reference value: 3 to 13.4%)
[30] = test system: T47D; assay: Induction of apoptosis in human T47D cells assessed as nuclear debris at 1000 nM by 7-AAD/Annexin staining-based assay (reference value: 0.2 to 7.7%)
[31] = test system: T47D; assay: Induction of apoptosis in human T47D cells assessed as early apoptotic cells at 300 nM by 7-AAD/Annexin staining-based assay (reference value: 1.6 to 4.3%)
[32] = test system: T47D; assay: Induction of apoptosis in human T47D cells assessed as late apoptotic cells at 300 nM by 7-AAD/Annexin staining-based assay (reference value: 3 to 13.4%)
[33] = test system: T47D; assay: Induction of apoptosis in human T47D cells assessed as nuclear debris at 300 nM by 7-AAD/Annexin staining-based assay (reference value: 0.2 to 7.7%)
[34] = test system: T47D; assay: Induction of apoptosis in human T47D cells assessed as viable cells at 100 nM by 7-AAD/Annexin staining-based assay (reference value: 74.5 to 94.5%); conditions: read-out: Activity
[35] = test system: T47D; assay: Induction of apoptosis in human T47D cells assessed as late apoptotic cells at 100 nM by 7-AAD/Annexin staining-based assay (reference value: 3 to 13.4%)

Row | Structure (SMILES) | Activity [1] [%] | Activity [2] [%] | Activity [3] [%] | Activity [4] [%] | Activity [5] [%] | viability at 0.3 µM [6] [%] | Activity [7] [%] | Activity [8] [%] | Activity [9] [%] | viability at 1 µM [10] [%] | Activity [11] [%] | Activity [12] [%] | Activity [13] [%] | viability at 0.1 µM [14] [%] | Activity [15] [%] | Activity [16] [%] | Activity [17] [%] | Activity [18] [%] | Activity [19] [%] | viability at 0.1 µM [20] [%] | further results
1 | O=C(Nc1ccc(-c2cccc(Cl)c2)cn1)c1cncnc1 | 0.9 | 3.6 | 3.2 | 0.5 | 0.3 | 92.4 | 0.5 | 3.3 | 0.4 | 97 | 0.5 | 0.8 | 0.8 | 98.9 | 0.6 | 0.4 | 0.1 | 0.7 | 0.7 | 86.2 | Activity [21]: 0.6%; Activity [22]: 3.7%; Activity [23]: 9.1%; Activity [24]: 2.9%; Activity [25]: 8.2%; Activity [26]: 5.7%; viability at 1 µM [27]: 82.9%; Activity [28]: 12%; Activity [29]: 4.5%; Activity [30]: 0.6%; Activity [31]: 9.5%; Activity [32]: 3.8%; Activity [33]: 0.3%; viability at 0.1 µM [34]: 92.4%; Activity [35]: 2.3%
2 | CN[C@@H]1C[C@H]2O[C@@](C)([C@@H]1OC)n1c3ccccc3c3c4c(c5c6ccccc6n2c5c31)C(=O)NC4 [STAUROSPORINE] | 1 | 5.4 | 3.7 | 0.4 | 9.6 | 83.6 | 1.1 | 3.4 | 0.6 | 97.3 | 0.2 | 1 | 0.2 | 98 | 1.2 | 0.7 | 0.1 | 3.1 | 0.9 | 51.1 | Activity [21]: 1.1%; Activity [22]: 4.4%; Activity [23]: 60.3%; Activity [24]: 15.1%; Activity [25]: 24.4%; Activity [26]: 6.6%; viability at 1 µM [27]: 88.4%; Activity [28]: 6.2%; Activity [29]: 4.8%; Activity [30]: 0.6%; Activity [31]: 5.5%; Activity [32]: 3.5%; Activity [33]: 0.4%; viability at 0.1 µM [34]: 95%; Activity [35]: 2.4%
